Several values for one entry are separate records, joined by “and”; a condition that tells them apart may be missing. Equal values may be shown once. Inconclusive results and toxic doses are left out. Rule for the calls: active = survival T/C of 150% or more; inactive = T/C below 125% in these data. Non-standard residues stand in square brackets, D forms with d. Residues, ends and D or L forms follow the SMILES beside them. ξ: configuration not given here. *: point of attachment. ONp = O=[N+]([O-])c1ccc(O*)cc1; ξS = NC(CO)C(=O)O
Tested on: CD2F1 mice, L1210 leukemia ip, survival T/C
Assay: NCI In Vivo Anticancer Drug Screen. Data for tumor model L1210 Leukemia (intraperitoneal) in CD2F1 (CDF1) mice
Details: higher = longer survival
How it was run: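 Mice carrying a transplanted tumor received test compound or vehicle alone. The value is the measurement in the treated group divided by that in the vehicle-treated control group.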

[1] = endpoint: mean survival time, dose: 50.0 mg/kg/injection, schedule: Q04DX003 (ip), vehicle: saline with Tween-80
[2] = endpoint: mean survival time, dose: 100.0 mg/kg/injection, schedule: Q04DX003 (ip), vehicle: saline with Tween-80
[3] = endpoint: mean survival time, dose: 200.0 mg/kg/injection, schedule: Q04DX003 (ip), vehicle: saline with Tween-80
[4] = endpoint: mean survival time, dose: 400.0 mg/kg/injection, schedule: Q04DX003 (ip), vehicle: saline with Tween-80
[5] = endpoint: mean survival time, dose: 100.0 mg/kg/injection, schedule: Q01DX001 (ip), vehicle: saline with Tween-80
[6] = endpoint: mean survival time, dose: 100.0 mg/kg/injection, schedule: Q01DX009 (ip), vehicle: saline with Tween-80
[7] = endpoint: mean survival time, dose: 100.0 mg/kg/injection, schedule: Q04DX002 (ip), vehicle: saline with Tween-80
[8] = endpoint: mean survival time, dose: 200.0 mg/kg/injection, schedule: Q01DX001 (ip), vehicle: saline with Tween-80
[9] = endpoint: mean survival time, dose: 200.0 mg/kg/injection, schedule: Q01DX009 (ip), vehicle: saline with Tween-80
[10] = endpoint: mean survival time, dose: 400.0 mg/kg/injection, schedule: Q01DX001 (ip), vehicle: saline with Tween-80
[11] = endpoint: mean survival time, dose: 400.0 mg/kg/injection, schedule: Q01DX009 (ip), vehicle: saline with Tween-80
[12] = endpoint: mean survival time, dose: 50.0 mg/kg/injection, schedule: Q01DX009 (ip), vehicle: saline with Tween-80
[13] = endpoint: mean survival time, dose: 400.0 mg/kg/injection, schedule: Q04DX002 (ip), vehicle: saline with Tween-80
[14] = endpoint: mean survival time, dose: 5.0 mg/kg/injection, schedule: Q04DX003 (ip), vehicle: saline
[15] = endpoint: mean survival time, dose: 10.0 mg/kg/injection, schedule: Q04DX003 (ip), vehicle: saline
[16] = endpoint: mean survival time, dose: 20.0 mg/kg/injection, schedule: Q04DX003 (ip), vehicle: saline

Measured: T/C

C1CN2CN3CCN(CN1C3)C2
inactive: endpoint: mean survival time, dose: 12.5 mg/kg/injection, schedule: Q01DX009 (ip), vehicle: saline 97 % of control | endpoint: mean survival time, dose: 25.0 mg/kg/injection, schedule: Q01DX009 (ip), vehicle: saline 109 % of control | endpoint: mean survival time, dose: 50.0 mg/kg/injection, schedule: Q01DX009 (ip), vehicle: saline 105 % of control | endpoint: mean survival time, dose: 100.0 mg/kg/injection, schedule: Q01DX009 (ip), vehicle: saline 118 % of control

[O-][n+]1c2ccccc2c(Oc2ccccc2)c2ccc3ccccc3c21
inactive: endpoint: mean survival time, dose: 25.0 mg/kg/injection, schedule: Q04DX003 (ip), vehicle: saline with Tween-80 98 % of control | [1] 95 % of control | [2] 86 % of control

NC(CO)C(=O)NCC(=O)Oc1ccc([N+](=O)[O-])cc1 (configuration not stated) (H-[ξS]-Gly-ONp)
inactive: endpoint: mean survival time, dose: 75.0 mg/kg/injection, schedule: Q01DX001 (ip), vehicle: saline 100 % of control | endpoint: mean survival time, dose: 150.0 mg/kg/injection, schedule: Q01DX001 (ip), vehicle: saline 102 % of control | endpoint: mean survival time, dose: 300.0 mg/kg/injection, schedule: Q01DX001 (ip), vehicle: saline 96 % of control

CCOC(OCC)c1nc(N)[nH]c(=O)c1CCCCc1ccccc1
inactive: [2] 87 % of control | [3] 87 % of control | [4] 95 % of control

CC(=O)OCC1OC(OC2C(COC(C)=O)OC(OC(C)=O)C(OC(C)=O)C2OC(C)=O)C(OC(C)=O)C(OC(C)=O)C1OC(C)=O (configuration not stated)
inactive: endpoint: mean survival time, dose: 100.0 mg/kg/injection, schedule: Q01DX001 (ip), vehicle: saline 100 % of control | endpoint: mean survival time, dose: 200.0 mg/kg/injection, schedule: Q01DX001 (ip), vehicle: saline 91 % of control | endpoint: mean survival time, dose: 400.0 mg/kg/injection, schedule: Q01DX001 (ip), vehicle: saline 97 % of control

O=C(/C=C/c1ccccc1)NC(=S)NCc1ccccc1
inactive: [5] 91 % of control | [6] 97 % of control and 100 % of control | [7] 89 % of control and 94 % of control and 98 % of control | [8] 88 % of control | [9] 94 % of control and 104 % of control | [10] 91 % of control | [11] 101 % of control and 105 % of control

CCCCCCCCCc1nc(N)nc(N)n1
inactive: [12] 104 % of control | [6] 104 % of control | [9] 104 % of control

CCOC(=O)Nc1cc(NCCc2ccccc2)c([N+](=O)[O-])c(N)n1
inactive: endpoint: mean survival time, dose: 100.0 mg/kg/injection, schedule: Q01DX001 (ip), vehicle: Klucel (hydroxypropylcellulose) (HPC) 91 % of control | endpoint: mean survival time, dose: 200.0 mg/kg/injection, schedule: Q01DX001 (ip), vehicle: Klucel (hydroxypropylcellulose) (HPC) 94 % of control | endpoint: mean survival time, dose: 400.0 mg/kg/injection, schedule: Q01DX001 (ip), vehicle: Klucel (hydroxypropylcellulose) (HPC) 86 % of control

CCCCCCCCS
inactive: [6] 100 % of control | [9] 91 % of control | [11] 92 % of control

O=[N+]([O-])c1ccc(/C=C/C=C/c2ccccc2)cc1
inactive: [2] 101 % of control | [3] 98 % of control | [4] 95 % of control

C=CCC1OC1CCCC1CO1 (configuration not stated)
inactive: endpoint: mean survival time, dose: 100.0 mg/kg/injection, schedule: Q01DX001 (ip), vehicle: saline sonified 94 % of control | [7] 97 % of control | endpoint: mean survival time, dose: 200.0 mg/kg/injection, schedule: Q01DX001 (ip), vehicle: saline sonified 90 % of control | endpoint: mean survival time, dose: 200.0 mg/kg/injection, schedule: Q04DX002 (ip), vehicle: saline with Tween-80 101 % of control | endpoint: mean survival time, dose: 400.0 mg/kg/injection, schedule: Q01DX001 (ip), vehicle: saline sonified 97 % of control | [13] 97 % of control

Cc1cc2ccccc2[n+](C)c1-c1ccccc1Cl (tested in a mixture with another compound)
inactive: endpoint: mean survival time, dose: 5.0 mg/kg/injection, schedule: Q01DX009 (ip), vehicle: saline 104 % of control | [14] 101 % of control | endpoint: mean survival time, dose: 10.0 mg/kg/injection, schedule: Q01DX009 (ip), vehicle: saline 100 % of control | [15] 101 % of control | [16] 105 % of control

Cc1cccc(Cl)c1NC(=O)CCCl
inactive: [2] 97 % of control | [3] 106 % of control | [4] 98 % of control

O=C(COc1ccc(Cl)c(Cl)c1)Nc1cccc(S(=O)(=O)F)c1
inactive: [5] 95 % of control | [8] 95 % of control | [10] 91 % of control

Cc1ccc(NC(=O)Oc2ccc(Br)cc2Br)c([N+](=O)[O-])c1
inactive: [1] 106 % of control | [2] 104 % of control | [3] 96 % of control | [4] 100 % of control | endpoint: median survival time, dose: 100.0 mg/kg/injection, schedule: Q01DX009 (ip), vehicle: saline with Tween-80 98 % of control | endpoint: median survival time, dose: 200.0 mg/kg/injection, schedule: Q01DX009 (ip), vehicle: saline with Tween-80 100 % of control | endpoint: median survival time, dose: 400.0 mg/kg/injection, schedule: Q01DX009 (ip), vehicle: saline with Tween-80 105 % of control | endpoint: median survival time, dose: 800.0 mg/kg/injection, schedule: Q01DX009 (ip), vehicle: saline with Tween-80 101 % of control

CCN(CC)C(=O)C(Cc1ccc(OC)c(OC)c1)C(Cc1ccc(OC)c(OC)c1)C(=O)O (configuration not stated)
inactive: endpoint: mean survival time, dose: 100.0 mg/kg/injection, schedule: Q01DX009 (ip), vehicle: other 98 % of control | endpoint: mean survival time, dose: 200.0 mg/kg/injection, schedule: Q01DX009 (ip), vehicle: other 98 % of control | endpoint: mean survival time, dose: 400.0 mg/kg/injection, schedule: Q01DX009 (ip), vehicle: other 95 % of control

O=C(c1ccccc1)C(O)(CC(c1ccccc1)[P+](c1ccccc1)(c1ccccc1)c1ccccc1)c1ccccc1 (configuration not stated)
inactive: endpoint: mean survival time, dose: 6.25 mg/kg/injection, schedule: Q01DX001 (ip), vehicle: saline with Tween-80 103 % of control | endpoint: mean survival time, dose: 12.5 mg/kg/injection, schedule: Q01DX001 (ip), vehicle: saline with Tween-80 96 % of control | endpoint: mean survival time, dose: 25.0 mg/kg/injection, schedule: Q01DX001 (ip), vehicle: saline with Tween-80 100 % of control

CCCCCCCCCCCCCCCC[N+](C)(C)C
inactive: endpoint: mean survival time, dose: 1.25 mg/kg/injection, schedule: Q01DX009 (ip), vehicle: saline with Tween-80 96 % of control | endpoint: mean survival time, dose: 2.5 mg/kg/injection, schedule: Q01DX009 (ip), vehicle: saline with Tween-80 98 % of control | endpoint: mean survival time, dose: 5.0 mg/kg/injection, schedule: Q01DX009 (ip), vehicle: saline with Tween-80 94 % of control and 97 % of control | [14] 96 % of control | [15] 98 % of control | [16] 95 % of control

O=c1[nH]c(=O)n(C2OC3COC2C3O)cc1F (configuration not stated)
inactive: endpoint: median survival time, dose: 12.5 mg/kg/injection, schedule: Q01DX005 (ip), vehicle: saline with Tween-80 101 % of control | endpoint: median survival time, dose: 25.0 mg/kg/injection, schedule: Q01DX005 (ip), vehicle: saline with Tween-80 106 % of control | endpoint: median survival time, dose: 50.0 mg/kg/injection, schedule: Q01DX005 (ip), vehicle: saline with Tween-80 102 % of control | endpoint: median survival time, dose: 100.0 mg/kg/injection, schedule: Q01DX005 (ip), vehicle: saline with Tween-80 97 % of control | endpoint: median survival time, dose: 200.0 mg/kg/injection, schedule: Q01DX005 (ip), vehicle: saline with Tween-80 96 % of control

Cc1c(C=[N+]2CCCCC2)c2ccccc2n1C
inactive: endpoint: mean survival time, dose: 12.5 mg/kg/injection, schedule: Q01DX009 (ip), vehicle: saline with Tween-80 95 % of control | endpoint: mean survival time, dose: 25.0 mg/kg/injection, schedule: Q01DX009 (ip), vehicle: saline with Tween-80 95 % of control | [12] 93 % of control | [6] 87 % of control | [7] 100 % of control | [13] 112 % of control

NC(=O)c1ccc[n+](CCc2c[nH]c3ccccc23)c1
inactive: endpoint: mean survival time, dose: 18.75 mg/kg/injection, schedule: Q01DX009 (ip), vehicle: saline with Tween-80 101 % of control | endpoint: mean survival time, dose: 37.5 mg/kg/injection, schedule: Q01DX009 (ip), vehicle: saline with Tween-80 92 % of control | endpoint: mean survival time, dose: 75.0 mg/kg/injection, schedule: Q01DX009 (ip), vehicle: saline with Tween-80 103 % of control | endpoint: mean survival time, dose: 75.0 mg/kg/injection, schedule: Q04DX003 (ip), vehicle: saline with Tween-80 88 % of control

— PubChem BioAssay AID256 (DTP/NCI, 2004)
